For the data set the following is noted: 101.33 kPa, Liquid, Vibrating tube method.

Numbers after ± are expanded uncertainties.

A word on the mass density: it is the mass of a sample divided by its volume. As for `O` [water], the mass density is 988.035 ± 0.053 kg/m3 (323.15 K); 985.693 ± 0.055 kg/m3 (328.15 K); 983.196 ± 0.057 kg/m3 (333.15 K); 980.551 ± 0.059 kg/m3 (338.15 K); 977.765 ± 0.061 kg/m3 (343.15 K).

The values are drawn from the NIST ThermoML archive (doi:10.1021/acs.jced.5b00535).
